For 18 compounds, T/C results are on record in PubChem BioAssay AID248 (DTP/NCI, 2004).

“And” between values parts separate entries of the source, which are not always exact repeats. Equal entries are not always repeated. Inconclusive results and toxic doses are left out.

This test concerns L1210 leukemia ip in BDF1 mice, survival T/C. In words: NCI In Vivo Anticancer Drug Screen. Data for tumor model L1210 Leukemia (intraperitoneal) in B6D2F1 (BDF1) mice. The following applies: endpoint: mean survival time, higher = longer survival. An outline of the steps:
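Tumor cells were implanted, animals were treated, and survival was followed. The result divides the treated measurement by the vehicle-control measurement.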

The mark [1] stands for this setting: dose: 100.0 mg/kg/injection, schedule: Q01DX001 (ip), vehicle: saline.
Where [2] appears, read: dose: 200.0 mg/kg/injection, schedule: Q01DX001 (ip), vehicle: saline.
Where [3] appears, read: dose: 100.0 mg/kg/injection, schedule: Q01DX009 (ip), vehicle: saline.
[4] abbreviates: dose: 100.0 mg/kg/injection, schedule: Q04DX003 (ip), vehicle: saline.
The mark [5] stands for this setting: dose: 200.0 mg/kg/injection, schedule: Q04DX003 (ip), vehicle: saline.
[6] abbreviates: dose: 400.0 mg/kg/injection, schedule: Q04DX003 (ip), vehicle: saline.
[7] abbreviates: dose: 100.0 mg/kg/injection, schedule: Q01DX009 (ip), vehicle: saline with Tween-80.
Where [8] appears, read: dose: 200.0 mg/kg/injection, schedule: Q01DX009 (ip), vehicle: saline.
Setting [9] is: dose: 400.0 mg/kg/injection, schedule: Q01DX009 (ip), vehicle: saline.
Setting [10] is: dose: 100.0 mg/kg/injection, schedule: Q01DX009 (ip), vehicle: Klucel (hydroxypropylcellulose) (HPC).
Setting [11] is: dose: 100.0 mg/kg/injection, schedule: Q04DX003 (ip), vehicle: Klucel (hydroxypropylcellulose) (HPC).
[12] abbreviates: dose: 200.0 mg/kg/injection, schedule: Q01DX009 (ip), vehicle: Klucel (hydroxypropylcellulose) (HPC).
[13] abbreviates: dose: 200.0 mg/kg/injection, schedule: Q04DX003 (ip), vehicle: Klucel (hydroxypropylcellulose) (HPC).
Setting [14] is: dose: 400.0 mg/kg/injection, schedule: Q04DX003 (ip), vehicle: Klucel (hydroxypropylcellulose) (HPC).
The mark [15] stands for this setting: dose: 100.0 mg/kg/injection, schedule: Q01DX001 (ip), vehicle: Klucel (hydroxypropylcellulose) (HPC).
The mark [16] stands for this setting: dose: 200.0 mg/kg/injection, schedule: Q01DX001 (ip), vehicle: Klucel (hydroxypropylcellulose) (HPC).
Where [17] appears, read: dose: 400.0 mg/kg/injection, schedule: Q01DX001 (ip), vehicle: Klucel (hydroxypropylcellulose) (HPC).
The mark [18] stands for this setting: dose: 400.0 mg/kg/injection, schedule: Q01DX009 (ip), vehicle: Klucel (hydroxypropylcellulose) (HPC).
Where [19] appears, read: dose: 100.0 mg/kg/injection, schedule: Q01DX001 (ip), vehicle: carboxymethylcellulose (CMC).
The mark [20] stands for this setting: dose: 200.0 mg/kg/injection, schedule: Q01DX001 (ip), vehicle: carboxymethylcellulose (CMC).
[21] abbreviates: dose: 400.0 mg/kg/injection, schedule: Q01DX001 (ip), vehicle: carboxymethylcellulose (CMC).
Setting [22] is: dose: 100.0 mg/kg/injection, schedule: Q04DX002 (ip), vehicle: Klucel (hydroxypropylcellulose) (HPC).
The mark [23] stands for this setting: dose: 200.0 mg/kg/injection, schedule: Q04DX002 (ip), vehicle: Klucel (hydroxypropylcellulose) (HPC).

For the compound `Cc1ncc(CCl)c2c1OC(C)(C)OC2`, the T/C is 100 % of control (dose: 75.0 mg/kg/injection, schedule: Q01DX001 (ip), vehicle: saline); 100 % of control under setting [1]; 101 % of control (dose: 150.0 mg/kg/injection, schedule: Q01DX001 (ip), vehicle: saline); 94 % of control under setting [2].
For the compound `O=COCC(O)COC=O`, the T/C runs as follows: (dose: 12.5 mg/kg/injection, schedule: Q01DX009 (ip), vehicle: saline) 101 % of control; (dose: 25.0 mg/kg/injection, schedule: Q01DX009 (ip), vehicle: saline) 104 % of control; (dose: 50.0 mg/kg/injection, schedule: Q01DX009 (ip), vehicle: saline) 87 % of control; under setting [3], 101 % of control; under setting [4], 95 % of control; under setting [5], 90 % of control. In addition, under setting [6], the T/C was 97 % of control.
Consider `COC1/C=C/OC2(C)Oc3c(C)c(O)c4c(O)c(c(/C=N/N5C(C)CN(Cc6ccc(C)cc6)CC5C)c(O)c4c3C2=O)NC(=O)C(C)=C/C=C/C(C)C(O)C(C)C(O)C(C)C(OC(C)=O)C1C` (configuration not stated), for which the T/C under setting [7] is 94 % of control.
For the compound `CC([NH-])c1ccccc1.[Cl][Pt]([Cl])[Cl]` (configuration not stated), the T/C reads like this: under setting [3], 97 % of control; under setting [8], 92 % of control; under setting [9], 87 % of control.
In the case of `Nc1nc(N)c2cc(S(=O)(=O)c3ccc4ccccc4c3)ccc2n1`, the T/C runs as follows: under setting [10], 91 % of control; under setting [11], 98 % of control; under setting [12], 94 % of control; under setting [13], 96 % of control; under setting [14], 98 % of control.
For `O=C(Nc1cc(Cl)ccc1Cl)C(Cl)(Cl)Cl`, the T/C under setting [15] is 97 % of control, the T/C under setting [16] is 103 % of control and the T/C under setting [17] is 93 % of control.
For `CCCc1c(C)[nH]c2ccccc12`, the T/C is 104 % of control under setting [10]; 105 % of control under setting [11]; 92 % of control under setting [12]; 104 % of control under setting [13]; 95 % of control under setting [18]; 105 % of control under setting [14].
Turning to `Cc1ccc(S(=O)(=O)OC2COCOC2)cc1`, the T/C reads like this: under setting [7], 110 % of control; (dose: 200.0 mg/kg/injection, schedule: Q01DX009 (ip), vehicle: saline with Tween-80) 102 % of control; (dose: 400.0 mg/kg/injection, schedule: Q01DX009 (ip), vehicle: saline with Tween-80) 91 % of control.
As to `O=C(COc1ccc(Cl)c(Cl)c1)N(Cc1ccccc1)Cc1ccc[n+](Cc2ccc(S(=O)(=O)F)cc2)c1`, the T/C runs as follows: (dose: 100.0 mg/kg/injection, schedule: Q04DX003 (ip), vehicle: saline with Tween-80) 102 % of control; (dose: 200.0 mg/kg/injection, schedule: Q04DX003 (ip), vehicle: saline with Tween-80) 96 % of control.
Turning to `O=C1c2ccccc2CC(Br)c2ccccc21` (configuration not stated), the T/C is 95 % of control under setting [15], 100 % of control under setting [16] and 100 % of control under setting [17].
On to `O=[N+]([O-])c1cc(C(F)(F)F)cc([N+](=O)[O-])c1N/N=C/c1ccc(Cl)cc1`, for which the T/C (dose: 12.5 mg/kg/injection, schedule: Q01DX009 (ip), vehicle: carboxymethylcellulose (CMC)) is 95 % of control and 102 % of control; the T/C (dose: 25.0 mg/kg/injection, schedule: Q01DX009 (ip), vehicle: carboxymethylcellulose (CMC)) was 97 % of control and 88 % of control; the T/C under setting [19] is 100 % of control and 103 % of control; the T/C (dose: 100.0 mg/kg/injection, schedule: Q04DX002 (ip), vehicle: carboxymethylcellulose (CMC)) was 100 % of control and 105 % of control; the T/C (dose: 100.0 mg/kg/injection, schedule: Q04DX003 (ip), vehicle: carboxymethylcellulose (CMC)) was 92 % of control and 101 % of control; the T/C under setting [20] is 103 % of control and 91 % of control. Moreover, the T/C (dose: 200.0 mg/kg/injection, schedule: Q04DX002 (ip), vehicle: carboxymethylcellulose (CMC)) is 98 % of control and 90 % of control; the T/C (dose: 200.0 mg/kg/injection, schedule: Q04DX003 (ip), vehicle: carboxymethylcellulose (CMC)) was 94 % of control and 96 % of control; the T/C under setting [21] was 103 % of control and 105 % of control; the T/C (dose: 400.0 mg/kg/injection, schedule: Q01DX009 (ip), vehicle: carboxymethylcellulose (CMC)) is 86 % of control and 90 % of control; the T/C (dose: 400.0 mg/kg/injection, schedule: Q04DX002 (ip), vehicle: carboxymethylcellulose (CMC)) was 86 % of control and 87 % of control; the T/C (dose: 400.0 mg/kg/injection, schedule: Q04DX003 (ip), vehicle: carboxymethylcellulose (CMC)) is 92 % of control and 96 % of control.
Take `N=c1ccn(C2OC(CO)C(O)C2O)c(=O)n1O` (configuration not stated): the T/C by setting is: (dose: 5.0 mg/kg/injection, schedule: Q01DX009 (ip), vehicle: saline) 123 % of control; (dose: 10.0 mg/kg/injection, schedule: Q01DX009 (ip), vehicle: saline) 100 % of control; under setting [1], 105 % of control; under setting [2], 108 % of control; (dose: 400.0 mg/kg/injection, schedule: Q01DX001 (ip), vehicle: saline) 103 % of control and 105 % of control; under setting [9], 167 % of control. The T/C runs as follows: (dose: 600.0 mg/kg/injection, schedule: Q01DX001 (ip), vehicle: saline) 105 % of control; (dose: 600.0 mg/kg/injection, schedule: Q01DX009 (ip), vehicle: saline) 94 % of control; (dose: 800.0 mg/kg/injection, schedule: Q01DX001 (ip), vehicle: saline) 110 % of control; (dose: 800.0 mg/kg/injection, schedule: Q01DX009 (ip), vehicle: saline) 94 % of control.
In the case of `CC(=O)NC1Cc2cc(C)cc(C)c21` (configuration not stated), the T/C is 105 % of control (dose: 50.0 mg/kg/injection, schedule: Q04DX002 (ip), vehicle: Klucel (hydroxypropylcellulose) (HPC)); 102 % of control under setting [22]; 98 % of control under setting [23].
With `NNC(=O)c1n[nH]c(=S)[nH]c1=O`, the T/C was 98 % of control under setting [19], 103 % of control under setting [20] and 95 % of control under setting [21].
Consider `CCOP(=O)(CC(=O)OC)OCC`, for which the T/C (dose: 50.0 mg/kg/injection, schedule: Q04DX003 (ip), vehicle: saline) is 102 % of control; the T/C under setting [3] is 103 % of control; the T/C under setting [4] is 100 % of control; the T/C under setting [8] is 101 % of control; the T/C under setting [5] was 102 % of control; the T/C under setting [9] is 88 % of control. Besides, the T/C under setting [6] is 102 % of control.
For the compound `CC1=CC(C)(C(Cl)(Cl)Cl)C(C)=C/C1=N/O` (configuration not stated), the T/C is 99 % of control under setting [10] and 89 % of control under setting [12].
Take `COc1ccc(CCN2CC(=O)NC(=O)C2)cc1OC`: the T/C reads like this: (dose: 25.0 mg/kg/injection, schedule: Q01DX009 (ip), vehicle: Klucel (hydroxypropylcellulose) (HPC)) 95 % of control; (dose: 25.0 mg/kg/injection, schedule: Q04DX003 (ip), vehicle: Klucel (hydroxypropylcellulose) (HPC)) 104 % of control; (dose: 50.0 mg/kg/injection, schedule: Q01DX009 (ip), vehicle: Klucel (hydroxypropylcellulose) (HPC)) 96 % of control; (dose: 50.0 mg/kg/injection, schedule: Q04DX003 (ip), vehicle: Klucel (hydroxypropylcellulose) (HPC)) 104 % of control; under setting [10], 101 % of control; under setting [11], 101 % of control. Moreover, the T/C is 101 % of control under setting [12], 101 % of control under setting [13], 101 % of control under setting [18] and 109 % of control under setting [14].
As to `O=S(=O)(Cc1ccccc1)C(I)c1ccccc1` (configuration not stated), the T/C runs as follows: under setting [22], 108 % of control; under setting [23], 122 % of control; (dose: 400.0 mg/kg/injection, schedule: Q04DX002 (ip), vehicle: Klucel (hydroxypropylcellulose) (HPC)) 105 % of control.
